Data set [1] is described as follows: Metabolic stability in rat liver microsomes assessed as parent compound remaining at 0.5 uM incubated for 10 mins in presence of NADPH by LC-MS/MS analysis. Format: ADME, Microsome. The following applies: read-out: Stability.
For data set [2], the target named is MAP kinase-interacting serine/threonine-protein kinase 1 (Homo sapiens, UniProt Q9BUB5). Description: Inhibition of MNK1 (unknown origin).
A short description of data set [3]: Ratio of drug concentration in spinal cord to plasma in CCI induced tactile allodynia in Sprague-Dawley rat at 3 mg/kg, po measured at 7.5 hrs post dose. Format: ADME, organism-based.
Data set [4] can be described thus: Half life in rat at 3 mg/kg, po or 2 mg/kg, iv. Format: ADME, organism-based. Particulars: in vivo.
The subject of another data set is Rattus norvegicus. Description: Analgesic activity in CCI induced tactile allodynia in Sprague-Dawley rat assessed as reduction in pain response at 3 mg/kg, po by Hargreaves test relative to control. Format: functional. Details: scale not given: the % may be the effect or the level left.
The nature of data set [5]: Inhibition of calcium channel (unknown origin). Set-up: species or system Homo sapiens.
A short description of data set [6]: Drug concentration in CCI induced tactile allodynia in Sprague-Dawley rat spinal cord at 3 mg/kg, po measured at 7.5 hrs post dose. Format: ADME, organism-based. The following applies: read-out: Ct.
A short description of data set [7]: Volume of distribution at steady state in rat at 3 mg/kg,po or 2 mg/kg,iv. Format: ADME, organism-based. The following applies: in vivo.
For data set [8], the target named is Voltage-gated inwardly rectifying potassium channel KCNH2 (Homo sapiens, UniProt Q12809). Description: Inhibition of human ERG by patch clamp assay. Format: toxicity.
The nature of data set [9]: Efflux ratio of permeability in human Caco-2 cells. The data set is classed as ADME, cell-based.
The nature of data set [10]: Genotoxicity in Salmonella typhimurium by Ames test. Format: toxicity. Particulars: salmonella enterica subsp. enterica serovar typhimurium.
Data set [11] in a line: Metabolic stability in mouse liver microsomes assessed as half life incubated at 0.5 uM for 10 mins in presence of NADPH by LC-MS/MS analysis. The following applies: for half-life at 0.5 µM: liver microsomes. The data set is classed as ADME, Microsome.
A short description of data set [12]: Drug concentration in STZ-induced diabetic peripheral neuropathic mechanical allodynia in overnight fasted Sprague-Dawley rat spinal cord at 1 mg/kg, po measured at 5.75 hrs post dose. Format: ADME, organism-based. Particulars: read-out: Ct.
The nature of data set [13]: Plasma concentration in STZ-induced diabetic peripheral neuropathic mechanical allodynia in overnight fasted Sprague-Dawley rat at 1 mg/kg, po measured at 5.75 hrs post dose. The data set is classed as ADME, organism-based.
The target of data set [14] is Myosin light chain kinase 2, skeletal/cardiac muscle (Homo sapiens, UniProt Q9H1R3). Description: Inhibition of MYLK2 (unknown origin).
Data set [15] is described as follows: Plasma concentration in CCI induced tactile allodynia in Sprague-Dawley rat at 3 mg/kg, po measured at 7.5 hrs post dose. Format: ADME, organism-based.
The target in data set [16] is T1, Cytochrome P450 3A4 (Homo sapiens, UniProt P08684). As to the kind of experiment: Inhibition of […] (unknown origin) using BFC as substrate incubated for 10 mins in presence of NADPH by LC-MS/MS analysis. Format: ADME.
A short description of data set [17]: Ratio of drug concentration in spinal cord to plasma in STZ-induced diabetic peripheral neuropathic mechanical allodynia in overnight fasted Sprague-Dawley rat at 1 mg/kg, po measured at 5.75 hrs post dose. Format: ADME, organism-based.
Data set [18] has as its target T2, Cyclin-G-associated kinase (Homo sapiens, UniProt O14976).
T2 sequence (O14976 whole entry): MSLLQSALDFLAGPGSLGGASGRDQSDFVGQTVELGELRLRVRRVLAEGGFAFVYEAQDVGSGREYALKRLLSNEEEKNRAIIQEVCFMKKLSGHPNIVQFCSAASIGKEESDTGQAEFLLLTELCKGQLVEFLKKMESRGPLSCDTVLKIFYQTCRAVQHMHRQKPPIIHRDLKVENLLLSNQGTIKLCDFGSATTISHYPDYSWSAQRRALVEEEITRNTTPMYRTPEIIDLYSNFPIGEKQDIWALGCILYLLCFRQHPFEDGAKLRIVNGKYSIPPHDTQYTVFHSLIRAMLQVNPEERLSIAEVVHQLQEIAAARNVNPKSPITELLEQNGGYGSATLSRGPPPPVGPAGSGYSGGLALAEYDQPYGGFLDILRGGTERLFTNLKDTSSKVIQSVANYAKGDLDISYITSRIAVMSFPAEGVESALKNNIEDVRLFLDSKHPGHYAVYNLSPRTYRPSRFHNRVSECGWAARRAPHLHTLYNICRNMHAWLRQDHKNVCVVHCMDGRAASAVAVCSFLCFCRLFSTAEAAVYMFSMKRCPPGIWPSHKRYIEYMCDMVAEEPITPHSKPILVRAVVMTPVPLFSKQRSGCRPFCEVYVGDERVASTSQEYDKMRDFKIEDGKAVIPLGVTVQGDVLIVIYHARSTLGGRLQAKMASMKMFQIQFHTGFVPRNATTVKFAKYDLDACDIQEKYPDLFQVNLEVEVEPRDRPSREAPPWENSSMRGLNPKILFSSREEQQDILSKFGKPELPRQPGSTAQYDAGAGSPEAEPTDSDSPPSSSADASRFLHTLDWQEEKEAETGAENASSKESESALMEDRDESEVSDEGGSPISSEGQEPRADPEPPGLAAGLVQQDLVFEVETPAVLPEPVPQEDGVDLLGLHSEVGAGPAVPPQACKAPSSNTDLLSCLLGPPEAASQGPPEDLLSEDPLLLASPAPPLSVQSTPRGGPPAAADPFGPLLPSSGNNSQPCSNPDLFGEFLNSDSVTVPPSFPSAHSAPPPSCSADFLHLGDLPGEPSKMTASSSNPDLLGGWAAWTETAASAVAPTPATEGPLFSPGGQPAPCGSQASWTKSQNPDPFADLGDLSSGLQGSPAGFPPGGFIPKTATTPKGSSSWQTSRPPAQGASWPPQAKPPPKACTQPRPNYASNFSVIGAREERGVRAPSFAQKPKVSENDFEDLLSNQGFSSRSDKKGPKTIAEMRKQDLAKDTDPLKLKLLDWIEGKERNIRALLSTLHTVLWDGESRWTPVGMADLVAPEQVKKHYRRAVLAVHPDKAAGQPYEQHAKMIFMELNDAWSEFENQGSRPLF
As to the kind of experiment: Inhibition of GAK (unknown origin).

For data set [19], the target named is Neuronal acetylcholine receptor subunit alpha-7 (Homo sapiens, UniProt P36544). As to the kind of experiment: Inhibition of nicotinic acetylcholine receptor alpha 7 (unknown origin). The data set is classed as toxicity.
Data set [20] deals with T1, Cytochrome P450 3A4. As to the kind of experiment: Time dependent inhibition of […] (unknown origin) using TST as substrate incubated for up to 30 mins in presence of NADPH by LC-MS/MS analysis. The data set is classed as ADME.
For data set [21], the target named is T1, Cytochrome P450 3A4. As to the kind of experiment: Time dependent inhibition of […] (unknown origin) using BFC as substrate incubated for 30 mins in presence of NADPH by LC-MS/MS analysis. The data set is classed as ADME.
In data set [22] the target is T1, Cytochrome P450 3A4. Description: Time dependent inhibition of […] (unknown origin) using MDZ as substrate incubated for up to 30 mins in presence of NADPH by LC-MS/MS analysis. The data set is classed as ADME.
The nature of data set [23]: Protein binding in mouse plasma assessed as unbound fraction measured after 3 hrs by LC/MS/MS analysis. Format: ADME, cell-free.
Data set [24] concerns the target T1, Cytochrome P450 3A4. As to the kind of experiment: Time dependent inhibition of […] (unknown origin) using BFC as substrate incubated for 5 mins in presence of NADPH by LC-MS/MS analysis. Format: ADME.
Data set [25] has as its target Sodium-dependent noradrenaline transporter (Homo sapiens, UniProt P23975). Description: Inhibition of NET (unknown origin). The data set is classed as toxicity.
A short description of data set [26]: Drug concentration in CCI induced thermal hyperalgesia in Sprague-Dawley rat spinal cord at 1 mg/kg, po measured after 5.5 hrs. The data set is classed as ADME, organism-based. The following applies: read-out: Ct.

T1 sequence (P08684 whole entry): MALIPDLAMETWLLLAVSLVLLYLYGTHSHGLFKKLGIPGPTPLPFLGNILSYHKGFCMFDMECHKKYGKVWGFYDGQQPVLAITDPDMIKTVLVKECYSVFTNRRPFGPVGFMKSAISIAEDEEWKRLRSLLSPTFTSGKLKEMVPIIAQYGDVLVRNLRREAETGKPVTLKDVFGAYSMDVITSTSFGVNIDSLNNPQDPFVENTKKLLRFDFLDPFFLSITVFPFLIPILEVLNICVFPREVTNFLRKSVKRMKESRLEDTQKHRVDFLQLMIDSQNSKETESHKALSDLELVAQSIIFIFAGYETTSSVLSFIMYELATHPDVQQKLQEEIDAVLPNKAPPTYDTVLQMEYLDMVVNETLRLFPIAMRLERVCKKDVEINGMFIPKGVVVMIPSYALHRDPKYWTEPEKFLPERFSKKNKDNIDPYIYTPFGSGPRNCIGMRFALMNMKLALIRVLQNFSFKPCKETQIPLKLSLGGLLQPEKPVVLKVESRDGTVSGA
Chain of MAP kinase-interacting serine/threonine-protein kinase 1 (Q9BUB5 whole entry): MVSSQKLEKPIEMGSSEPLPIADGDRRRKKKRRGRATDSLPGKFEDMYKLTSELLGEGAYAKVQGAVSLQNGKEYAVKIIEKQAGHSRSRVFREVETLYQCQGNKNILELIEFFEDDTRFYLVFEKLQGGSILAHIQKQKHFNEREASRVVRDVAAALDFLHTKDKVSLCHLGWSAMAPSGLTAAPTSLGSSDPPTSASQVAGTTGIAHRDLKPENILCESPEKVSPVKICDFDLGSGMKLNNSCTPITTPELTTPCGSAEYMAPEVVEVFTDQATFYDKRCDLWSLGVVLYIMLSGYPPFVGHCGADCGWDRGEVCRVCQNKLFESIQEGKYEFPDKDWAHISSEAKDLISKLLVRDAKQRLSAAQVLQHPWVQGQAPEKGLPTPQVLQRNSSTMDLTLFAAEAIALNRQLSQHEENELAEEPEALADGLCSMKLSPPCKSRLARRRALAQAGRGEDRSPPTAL
Chain of Myosin light chain kinase 2, skeletal/cardiac muscle (Q9H1R3 whole entry): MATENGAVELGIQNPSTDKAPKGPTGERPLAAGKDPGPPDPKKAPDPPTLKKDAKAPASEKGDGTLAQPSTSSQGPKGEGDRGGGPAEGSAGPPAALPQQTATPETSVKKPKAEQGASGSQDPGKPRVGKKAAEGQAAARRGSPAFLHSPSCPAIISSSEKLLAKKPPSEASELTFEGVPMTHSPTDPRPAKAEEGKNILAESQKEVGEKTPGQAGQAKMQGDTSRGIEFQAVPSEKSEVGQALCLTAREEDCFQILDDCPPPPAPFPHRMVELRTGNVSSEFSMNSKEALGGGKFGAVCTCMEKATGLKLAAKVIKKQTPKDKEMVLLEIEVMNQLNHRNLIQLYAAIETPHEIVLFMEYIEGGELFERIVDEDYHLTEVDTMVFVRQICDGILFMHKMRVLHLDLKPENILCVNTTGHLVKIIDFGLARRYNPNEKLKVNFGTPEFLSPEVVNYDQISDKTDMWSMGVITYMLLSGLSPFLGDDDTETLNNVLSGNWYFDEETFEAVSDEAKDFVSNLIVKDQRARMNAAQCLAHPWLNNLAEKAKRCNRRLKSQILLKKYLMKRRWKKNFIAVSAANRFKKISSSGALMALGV
Chain of Voltage-gated inwardly rectifying potassium channel KCNH2 (Q12809 whole entry): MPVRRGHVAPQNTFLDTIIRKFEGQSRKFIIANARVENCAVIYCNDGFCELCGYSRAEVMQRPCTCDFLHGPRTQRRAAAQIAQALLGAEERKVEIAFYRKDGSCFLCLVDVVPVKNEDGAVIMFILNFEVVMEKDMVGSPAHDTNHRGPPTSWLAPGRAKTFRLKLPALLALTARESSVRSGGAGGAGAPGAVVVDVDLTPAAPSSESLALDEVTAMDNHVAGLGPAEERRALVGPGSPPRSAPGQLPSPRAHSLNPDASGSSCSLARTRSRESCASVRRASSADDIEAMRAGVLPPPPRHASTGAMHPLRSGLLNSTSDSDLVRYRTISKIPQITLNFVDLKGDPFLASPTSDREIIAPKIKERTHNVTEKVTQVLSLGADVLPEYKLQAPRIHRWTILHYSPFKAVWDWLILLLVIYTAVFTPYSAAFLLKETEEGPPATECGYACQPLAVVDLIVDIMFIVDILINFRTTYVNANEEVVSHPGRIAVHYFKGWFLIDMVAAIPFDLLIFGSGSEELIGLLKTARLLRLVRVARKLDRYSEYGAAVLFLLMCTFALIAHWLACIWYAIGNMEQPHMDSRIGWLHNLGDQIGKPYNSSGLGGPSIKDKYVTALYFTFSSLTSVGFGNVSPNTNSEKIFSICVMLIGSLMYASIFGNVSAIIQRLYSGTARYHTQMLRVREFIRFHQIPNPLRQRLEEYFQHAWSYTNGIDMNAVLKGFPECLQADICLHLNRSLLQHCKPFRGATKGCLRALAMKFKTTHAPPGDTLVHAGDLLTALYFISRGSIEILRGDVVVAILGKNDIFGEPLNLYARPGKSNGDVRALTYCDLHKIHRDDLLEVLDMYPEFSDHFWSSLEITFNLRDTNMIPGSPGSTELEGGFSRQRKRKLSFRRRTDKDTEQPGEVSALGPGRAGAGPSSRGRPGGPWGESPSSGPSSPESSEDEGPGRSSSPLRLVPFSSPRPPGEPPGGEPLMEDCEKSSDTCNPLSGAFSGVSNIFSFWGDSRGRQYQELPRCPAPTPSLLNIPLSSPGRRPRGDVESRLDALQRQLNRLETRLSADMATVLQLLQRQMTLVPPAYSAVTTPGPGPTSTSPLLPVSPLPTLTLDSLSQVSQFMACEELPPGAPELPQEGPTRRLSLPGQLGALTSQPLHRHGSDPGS
Chain of Sodium-dependent noradrenaline transporter (P23975 whole entry): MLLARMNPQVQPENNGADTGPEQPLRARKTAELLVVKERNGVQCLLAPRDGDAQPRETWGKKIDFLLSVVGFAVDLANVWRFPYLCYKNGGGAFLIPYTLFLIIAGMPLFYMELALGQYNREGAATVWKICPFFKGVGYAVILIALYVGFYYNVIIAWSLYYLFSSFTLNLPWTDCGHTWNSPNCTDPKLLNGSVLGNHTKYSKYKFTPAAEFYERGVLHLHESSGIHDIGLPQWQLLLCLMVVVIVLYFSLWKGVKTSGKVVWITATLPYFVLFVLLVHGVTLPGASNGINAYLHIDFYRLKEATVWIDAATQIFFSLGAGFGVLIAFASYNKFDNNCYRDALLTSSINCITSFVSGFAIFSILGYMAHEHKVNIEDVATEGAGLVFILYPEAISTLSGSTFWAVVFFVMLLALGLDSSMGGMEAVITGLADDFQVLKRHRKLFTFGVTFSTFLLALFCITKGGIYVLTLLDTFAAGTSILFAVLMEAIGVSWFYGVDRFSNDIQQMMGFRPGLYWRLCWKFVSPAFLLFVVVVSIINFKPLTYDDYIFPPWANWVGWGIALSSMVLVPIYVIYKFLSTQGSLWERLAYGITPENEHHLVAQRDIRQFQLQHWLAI
Chain of Neuronal acetylcholine receptor subunit alpha-7 (P36544 whole entry): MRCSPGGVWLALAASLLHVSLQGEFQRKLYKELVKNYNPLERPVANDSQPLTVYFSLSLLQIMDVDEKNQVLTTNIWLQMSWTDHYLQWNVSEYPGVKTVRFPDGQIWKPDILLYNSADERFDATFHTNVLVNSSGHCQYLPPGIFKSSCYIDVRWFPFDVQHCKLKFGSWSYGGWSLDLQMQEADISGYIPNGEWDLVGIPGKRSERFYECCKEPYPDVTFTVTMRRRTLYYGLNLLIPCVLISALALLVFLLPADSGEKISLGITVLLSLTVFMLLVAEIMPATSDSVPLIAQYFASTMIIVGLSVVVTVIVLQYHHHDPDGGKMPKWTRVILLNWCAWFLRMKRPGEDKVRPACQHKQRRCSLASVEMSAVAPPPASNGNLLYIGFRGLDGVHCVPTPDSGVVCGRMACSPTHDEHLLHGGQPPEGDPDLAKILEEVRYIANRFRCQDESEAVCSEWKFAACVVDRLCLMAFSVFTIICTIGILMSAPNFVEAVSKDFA

`COC(=O)Nc1cc(-c2ccc(OC[C@@](C)(N)CC(C)C)c(C)n2)ccn1`: in data set [1], the remaining at 10 min, 0.5 µM is 95%. Besides, the IC50 in [2] was 0.19 µM; in data set [5] it was 16 µM; in data set [8], 5.9 µM; in [14], 1.8 µM; at Cytochrome P450 3A4 [16], more than 20 µM; in [18] it was 0.21 µM. The Kp at 7.5 h in [3] is 8.8. Besides, the half-life in [4] is 11.3 h. Also, the Activity with Rattus norvegicus is 80%; in [10] it was “Non-Toxic”. The results for the concentration at 7.5 h in [6] and in [15] were 4400 nM and 500 nM, respectively. Also, the Vdss in [7] was determined as 16.3 L/kg. The efflux ratio in data set [9] came to 1.1. Besides, the half-life at 0.5 µM in [11] was determined as 1.53 h. The concentration at 5.75 h was determined as 213 nM in [12] and 80 nM in data set [13]. For the same compound, the Kp at 5.75 h in [17] amounted to 2.7.

With `COC(=O)Nc1cc(-c2cnc(OC[C@@](C)(N)CC(C)C)c(C)c2)ccn1`, the remaining at 10 min, 0.5 µM in data set [1] came out at 83%. Further, the IC50 in data set [19] was 4.5 µM; on Cytochrome P450 3A4 [20], more than 40 µM; in data set [5] it was 35.3 µM; on Cytochrome P450 3A4 [21], more than 20 µM; at Cytochrome P450 3A4 [22], more than 40 µM; on Cytochrome P450 3A4 [24], more than 20 µM. For the same compound, the IC50 in [25] was 5 µM; at Cytochrome P450 3A4 [16], more than 20 µM; in data set [18] it was 0.44 µM. For the same compound, the Kp at 7.5 h in data set [3] was 5.1. The compound further had a half-life in data set [4] of 7.55 h. In addition, the Activity with Rattus norvegicus is 60%. Moreover, the concentration at 7.5 h in data set [6] is 720 nM; in data set [15], 140 nM. In [7], this compound displayed a Vdss of 30.9 L/kg. Moreover, the efflux ratio in [9] came out at 1. Moreover, the fraction unbound at 3 h in data set [23] amounted to 0.049. Besides, the t1/2 in [11] (microsomes, 10 min, 0.5 µM) was 0.9 h.

As for `CC(C)C[C@](C)(N)COc1cnc(-c2ccnc(C(F)F)c2)cc1C(F)F`, the remaining at 10 min, 0.5 µM in [1] turned out to be 85%. Moreover, the IC50 in data set [2] was 0.26 µM; in data set [19], 4 µM; at Cytochrome P450 3A4 [20] it was more than 40 µM; in [5], 18.8 µM; on Cytochrome P450 3A4 [21], more than 20 µM; in data set [8] it was 1.3 µM. Also, the IC50 on Cytochrome P450 3A4 [22] is more than 40 µM; at Cytochrome P450 3A4 [24] it was more than 20 µM; in [14], 0.45 µM; in data set [25], 1.8 µM; at Cytochrome P450 3A4 [16], more than 20 µM; in [18], 0.4 µM. The compound further had a half-life in data set [4] of 5.02 h. This compound returned a Vdss in data set [7] of 41.3 L/kg. Moreover, the efflux ratio in data set [9] came out at 0.7. Further, the Activity entry in [10] is reported as “Non-Toxic”. The fraction unbound at 3 h in data set [23] was 0.065. Further, the half-life at 0.5 µM in [11] is more than 2 h. Also, the figures for the concentration at 5.75 h in data set [12] and in data set [13] were 213 nM and 80 nM, respectively. Moreover, the Kp at 5.75 h in [17] came to 2.7. Moreover, the concentration at 5.5 h in [26] is 217 nM.

The values above are taken from ChEMBL document CHEMBL5154787 (J Med Chem, 2022).
